Assay results taken from patent US20070043093A1, “Glucagon-like peptide-1 receptor agonists, the preparation and the use of the same” (priority 2003, published 2007).

Biological target: T1, GLP-1R (Rattus norvegicus, UniProt P32301)
T1 construct: stably transfected with the expression vector of GLP-1R gene
T1 sequence (P32301 22-463): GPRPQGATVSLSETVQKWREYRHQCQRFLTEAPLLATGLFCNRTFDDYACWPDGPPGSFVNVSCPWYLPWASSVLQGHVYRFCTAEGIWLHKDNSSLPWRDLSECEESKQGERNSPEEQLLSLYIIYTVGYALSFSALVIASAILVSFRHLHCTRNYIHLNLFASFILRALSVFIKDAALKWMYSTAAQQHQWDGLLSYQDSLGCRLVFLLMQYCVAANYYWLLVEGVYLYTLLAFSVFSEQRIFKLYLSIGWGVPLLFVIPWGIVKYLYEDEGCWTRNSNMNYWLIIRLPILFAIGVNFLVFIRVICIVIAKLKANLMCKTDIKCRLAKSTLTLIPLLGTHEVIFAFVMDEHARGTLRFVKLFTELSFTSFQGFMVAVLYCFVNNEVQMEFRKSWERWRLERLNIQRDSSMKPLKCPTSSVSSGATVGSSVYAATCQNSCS
Experiment: Ligand-binding activity, competition with 125I-labelled GLP-1 on HEK 293/GLP1R+Luc cells
Set-up: species or system human
Conditions: competition with 125I-labelled GLP-1 (40 pM), 25 °C, 4 hours
Experimental: In order to determine the binding activity of the compound to the ligand, the cells which highly express GLP-1R are prepared, GLP-1 labelled with ^125I is used as the ligand, while adding into the candidate compound. When the candidate compound binds the ^125I-labelled GLP-1 competitively, the isotope labels on the cell membrane reduce. Accordingly, the affinity of the candidate compound to the ligand can be evaluated (J Mol Endocrinol. 2000 Vol.25:321-35; J Biomol Screen, 2000 Vol. 5:377-84).
20 mM of tris-HCl (pH 7.4) (Shanghai Shenggong biological engineering technology LTD), 100 mM of NaCl (Shanghai Chemical agents Cooperation), 15 mM of NaF (Shanghai Chemical agents Cooperation), 2 mM of deoxypyridoxine (Sigma Cooperation), 0.2 mM of phenylmethylsulfonyl fluoride (Sigma Cooperation), aprotinin (Shanghai Chemical agents Cooperation) (1 μg/ml), and leupeptin (Shanghai Chemical agents Cooperation) (1 μg/ml).
The candidate compound is diluted with dimethyl sulphoxide at the concentration gradient of 0.1 nM, 1 nM, 10 nM, 100 nM, 1000 nM, 10,000 nM, and 100,000 nM.
10^5 HEK 293/GLP1R+Luc cells in the logarithmic growth phase are incubated together with the ^125I-labelled GLP-1 positive peptide (the final concentration of 40 pM) in 200 μl of the testing buffer solution at 25 °C for 4 hours, while adding into the non-labeled positive peptide or the candidate compound. The cells are collected with the cell collector, following by washing three times with the washing solution. The scintillation liquid is added into them, and each well is counted with Microbata counter.

Structure (SMILES)	EC50 [µM]
CCOc1cc(/C=C2/N=C(c3ccc(NC(C)=O)cc3)OC2=O)ccc1OC(=O)c1cccs1 [2f]	31
COc1cc(C=C2N=C(c3ccccc3)OC2=O)ccc1OC(=O)c1cccs1 [wang405]	> 100
COc1cc(/C=C2/N=C(c3ccc(N)cc3)OC2=O)ccc1OC(=O)c1cccs1 [wang420]	> 100
COc1cc(C=C2N=C(c3ccc([N+](=O)[O-])cc3)OC2=O)ccc1OC(=O)c1cccs1 [wang450]	> 100
COc1cc(/C=C2/N=C(c3ccc(NC(C)=O)cc3)OC2=O)ccc1OC(=O)c1cccs1 [wang462]	> 100
COc1cc(C=C2N=C(c3ccc(NC(=O)C4CCCC4)cc3)OC2=O)ccc1OC(=O)c1cccs1 [wang516]	40 to 80
COc1cc(/C=C2/N=C(c3ccc(NC(=O)OC(C)(C)C)cc3)OC2=O)ccc1OC(=O)c1cccs1 [wang520]	60 to 100
COc1cc(/C=C2/N=C(c3ccc(NC(=O)c4ccccc4)cc3)OC2=O)ccc1OC(=O)c1cccs1 [wang524]	> 100
COc1cc(C=C2N=C(c3ccc(NC(=O)Nc4ccc(C5=NC(=Cc6ccc(OC(=O)c7cccs7)c(OC)c6)C(=O)O5)cc4)cc3)OC2=O)ccc1OC(=O)c1cccs1 [wang866]	> 100

Same assay, conditions: receptor-binding experiment, testing concentration range 0.1 nM to 100,000 nM

Structure (SMILES)	affinity to GLP-1R (in words)
CCOc1cc(/C=C2/N=C(c3ccc(NC(C)=O)cc3)OC2=O)ccc1OC(=O)c1cccs1 [2f]	better affinity
COc1cc(C=C2N=C(c3ccc(NC(=O)C4CCCC4)cc3)OC2=O)ccc1OC(=O)c1cccs1 [wang516]	little week
COc1cc(/C=C2/N=C(c3ccc(NC(=O)OC(C)(C)C)cc3)OC2=O)ccc1OC(=O)c1cccs1 [wang520]	little week

Biological target: T1, GLP-1R
Experiment: Expression of the luciferase report gene in HEK 293/GLP1R+Luc cells
Type: cell-based, human
Conditions: final concentration of 30 μM; luciferase activity induced by 30 nM standard GLP-1 regarded as 100%; FIG. 1
Description: Upon that GLP-1R binds to GLP-1 or agonists, its Gasubunit is activated to stimulate the adenylate cyclase, which makes the increase in the concentration of intracellular cAMP. Since the promoter region of the proinsulin gene has the cAMP response element, upon binding of cAMP to this response element, the transcription of the proinsulin gene is activated, so as to increase the sensitivity of -- islet cells to glucose, and improve the expression and secretion of insulin (Diabetes, 2000, vol.49:1156-1164). The screening model employs the human embryonal nephric cell strain which is stably transfected with the expression vector of GLP-1R gene and the expression vector of luciferase report gene under the regulation of cAMP response element, to detect its response to the candidate compound (Cell Biology, 1992, Vol.89: 8641-8645; Proc. Natl. Acad. Sci. U.S.A. 1987, Vol.84: 3434-3438). When screening the candidate compounds, the compound which may induce the luciferase report gene to express have the activity of activating GLP-1.
Cell strain: HEK 293/GLP1R+Luc strain which stably express GLP-1R and luciferase (National New Medicaments Screening Center)
HEK 293/GLP1R+Luc cell in 20000 cells/100 μl/well are inoculated into 96-well plate, are cultured at 37[…] overnight with DMEM culture medium containing 10% of fetal calf serum and 500 μg/mL of G418. The candidate compounds wang516-2, wang502, and wang504 are respectively diluted to 2 mM, 1 mM, 0.3 mM, 0.1 mM, 0.03 mM, […], and 0.003 mM, and the other candidate compounds are diluted gradually from 30 mM for 8 times by a ratio of 1:3 to get a concentration gradient (i.e., 30 mM, 10 mM, 3 mM, 1 mM, 0.3 mM, 0.1 mM, 0.03 mM, and 0.01 mM), following by being added into the above 96-well plate at 1 μl/well. Then, the cells are cultured at 37[…] in 5% of CO2for 6 hours. The activity of luciferase is detected according to the specification of Steady-glo™ luciferase analysis system kit, and counting is performed with Victor 2 counting machine. The positive control adopts 30 nM of standard GLP-1.

Structure (SMILES)	relative activity of luciferase [%]
COc1cc(/C=C2/N=C(c3ccc(NC(=O)OC(C)(C)C)cc3)OC2=O)ccc1OC(=O)c1cccs1 [wang520]	94

Same assay, conditions: luciferase report gene, HEK 293/GLP1R+Luc cells, 6 hours

Structure (SMILES)	EC50 [µM]
CCOc1cc(/C=C2/N=C(c3ccc(NC(C)=O)cc3)OC2=O)ccc1OC(=O)c1cccs1 [2f]	13
COc1cc(/C=C2/N=C(c3ccc(NC(C)=O)cc3)OC2=O)ccc1OC(=O)c1cccs1 [wang462]	11.6
COc1cc(/C=C2/N=C(c3ccc(NC(=O)C4CC4)cc3)OC2=O)ccc1OC(=O)c1cccs1 [wang488]	6.73
COc1cc(/C=C2/N=C(c3ccc(NC(=O)C4CCC4)cc3)OC2=O)ccc1OC(=O)c1cccs1 [wang502]	3.31
COc1cc(/C=C2/N=C(c3ccc(NC(=O)C(C)(C)C)cc3)OC2=O)ccc1OC(=O)c1cccs1 [wang504]	4.87
COc1cc(C=C2N=C(c3ccc(NC(=O)C4CCCC4)cc3)OC2=O)ccc1OC(=O)c1cccs1 [wang516]	6.85
COc1cc(/C=C2/N=C(c3ccc(NC(=O)OC(C)(C)C)cc3)OC2=O)ccc1OC(=O)c1cccs1 [wang520]	4.6
COc1cc(/C=C2/N=C(c3ccc(NC(=O)c4ccccc4)cc3)OC2=O)ccc1OC(=O)c1cccs1 [wang524]	46.5
COc1cc(/C=C2/N=C(c3ccc(NC(=O)C(O)c4ccccc4)cc3)OC2=O)ccc1OC(=O)c1cccs1 (stereo not shown) [wang554]	5.24
COc1cc(C=C2N=C(c3ccc(NC(=O)Nc4ccc(C5=NC(=Cc6ccc(OC(=O)c7cccs7)c(OC)c6)C(=O)O5)cc4)cc3)OC2=O)ccc1OC(=O)c1cccs1 [wang866]	54.4

Biological target: T1, GLP-1R
Experiment: Determination of the concentration of intracellular cAMP
Type: cell-based, human
Conditions: 30 μM and 100 μM
Description: Since the determination of the concentration of intracellular cAMP indirectly by detecting the expression of the report gene is an indirect process, the functional re-screen is directly performed with the cAMP-detecting kit in order to make sure that the compound can surely increase the concentration of intracellular cAMP.
HEK 293/GLP1R+Luc strain which stably express GLP-1R and luciferase (National new medicaments screening center)
HEK 293 cells are inoculated into 96-well plate in 20000 cells/100 μl/well, are cultured at 37[…] overnight. The compound 2f is diluted to 1.00E-03M, 1.00E-04M, 1.00E-05M, 1.00E-06M and 1.00E-07M with dimethyl sulphoxide, following by being inoculated into the above 96-well plate in […] and being cultured at 37 °C with 5% of CO2 for 1 hour. The concentration of intracellular cAMP is detected according to the specification of cAMP-Screen Direct TM system kit.

Structure (SMILES)	effect of high concentration on cells (cAMP decreasing trend)
CCOc1cc(/C=C2/N=C(c3ccc(NC(C)=O)cc3)OC2=O)ccc1OC(=O)c1cccs1 [2f]	cellulotoxic effect

Same assay, conditions: 293/GLP-1R cells, 1 hour; FIG. 2

Structure (SMILES)	concentration of cAMP with increase of compound concentration
CCOc1cc(/C=C2/N=C(c3ccc(NC(C)=O)cc3)OC2=O)ccc1OC(=O)c1cccs1 [2f]	exponential increase
